The nature of one data set: in vitro. The note with it: African green monkey.
The target in data set [1] is rhACE2 - SARS-CoV-2 Spike (RBD) protein interaction (Homo sapiens, UniProt Q9BYF1). As to the kind of experiment: biochemical. The data set is classed as binding, human; SARS-CoV-2.
A further data set concerns Vero E6 cells. The settings on record: for Concentration at Maximum % Viability: monkey.
Data set [2] concerns the target recombinant human ACE2 (rhACE2) (Homo sapiens, UniProt Q9BYF1). Briefly: ACE2 inhibitor screening assay. The data set is classed as biochemical.
The test system of a further data set is SARS-CoV-2 USA_WA1/2020. In kind it is cell-based.
The test system of data set [3] is ACE2-Spike interaction (SARS-CoV, SARS-CoV2, NL63S). The note with it: cited from earlier work.
[4] abbreviates: Spike (RBD)-ACE2 Interaction Assay IC50_1.
[5] abbreviates: Spike (RBD)-ACE2 Interaction Assay IC50_2.

Data on ten compounds can be found in paper PMC7951571 (Heliyon, 2021).

Where two headings read alike, the source gives them in different places. Residues, ends and D or L forms follow the SMILES beside them. *: point of attachment. Cbz = O=C(OCc1ccccc1)*; CH2F = FC* Some results are limits rather than exact numbers.

Sequence of rhACE2 - SARS-CoV-2 Spike (RBD) protein interaction (Q9BYF1 18-740): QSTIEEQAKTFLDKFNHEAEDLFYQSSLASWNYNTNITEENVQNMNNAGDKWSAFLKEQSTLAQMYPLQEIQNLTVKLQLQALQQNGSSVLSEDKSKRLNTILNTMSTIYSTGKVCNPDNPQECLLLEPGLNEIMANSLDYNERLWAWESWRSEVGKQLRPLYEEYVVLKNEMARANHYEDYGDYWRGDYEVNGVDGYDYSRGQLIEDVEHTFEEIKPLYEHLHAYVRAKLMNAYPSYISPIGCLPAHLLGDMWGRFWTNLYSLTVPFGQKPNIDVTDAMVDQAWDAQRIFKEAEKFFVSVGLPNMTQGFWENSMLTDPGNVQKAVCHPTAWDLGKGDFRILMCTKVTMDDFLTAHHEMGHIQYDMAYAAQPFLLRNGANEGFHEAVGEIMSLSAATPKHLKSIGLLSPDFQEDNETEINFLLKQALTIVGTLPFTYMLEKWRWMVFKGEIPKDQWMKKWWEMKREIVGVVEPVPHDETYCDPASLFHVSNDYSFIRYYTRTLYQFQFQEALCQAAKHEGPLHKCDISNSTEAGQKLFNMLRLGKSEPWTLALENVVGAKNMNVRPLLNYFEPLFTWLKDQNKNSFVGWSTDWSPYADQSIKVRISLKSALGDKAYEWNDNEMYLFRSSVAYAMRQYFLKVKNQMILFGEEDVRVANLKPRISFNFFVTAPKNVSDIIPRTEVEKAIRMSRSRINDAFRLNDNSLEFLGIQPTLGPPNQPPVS
Sequence of recombinant human ACE2 (rhACE2) (Q9BYF1 18-805): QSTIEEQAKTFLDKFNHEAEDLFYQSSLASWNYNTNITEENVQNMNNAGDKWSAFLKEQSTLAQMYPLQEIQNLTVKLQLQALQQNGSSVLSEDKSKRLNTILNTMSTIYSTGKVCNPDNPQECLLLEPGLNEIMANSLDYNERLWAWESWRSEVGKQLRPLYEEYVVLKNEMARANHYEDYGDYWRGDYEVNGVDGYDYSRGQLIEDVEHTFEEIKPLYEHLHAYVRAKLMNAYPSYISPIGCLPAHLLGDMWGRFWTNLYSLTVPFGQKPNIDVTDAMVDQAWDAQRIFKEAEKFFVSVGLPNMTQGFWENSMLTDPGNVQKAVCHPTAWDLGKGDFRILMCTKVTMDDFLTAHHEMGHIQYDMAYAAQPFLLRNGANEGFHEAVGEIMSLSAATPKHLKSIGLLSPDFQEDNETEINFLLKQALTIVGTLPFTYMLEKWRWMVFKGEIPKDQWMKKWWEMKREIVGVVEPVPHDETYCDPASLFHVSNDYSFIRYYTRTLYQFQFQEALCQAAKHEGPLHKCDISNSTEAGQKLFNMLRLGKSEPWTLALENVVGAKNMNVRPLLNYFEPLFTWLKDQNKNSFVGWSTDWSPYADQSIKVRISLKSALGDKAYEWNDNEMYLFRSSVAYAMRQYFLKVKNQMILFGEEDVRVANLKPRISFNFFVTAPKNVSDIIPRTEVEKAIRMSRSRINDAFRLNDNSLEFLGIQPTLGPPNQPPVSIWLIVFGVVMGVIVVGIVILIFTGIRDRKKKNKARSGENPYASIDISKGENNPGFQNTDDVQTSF

As to `Oc1c(Cl)cc(Cl)c2cccnc12` [CLCQ, 5,7-dichloro-8-hydroxyquinoline], the CC50 in the data set “in vitro” is > 30 µM. The values for the viability in “in vitro” (Maximum Viability (%)) and in “in vitro” (Minimum Viability (%)) were 102% and 60.8%, respectively. Moreover, the IC50 in data set [1] (setting [4]) is 1740 nM; in data set [1] (setting [5]), 1910 nM; in data set [2] it was < 10 µM. In addition, in the data set with Vero E6 cells (African green monkey), the “Concentration at Minimum % Viability” value was 15.00 µM. For the same compound, in the data set with Vero E6 cells, the “Concentration at Maximum % Viability” value stood at 0.06 µM.

Regarding `CCC(CC)COC(=O)[C@H](C)N[P@](=O)(OC[C@H]1O[C@@](C#N)(c2ccc3c(N)ncnn23)[C@H](O)[C@@H]1O)Oc1ccccc1` [Remdesivir], in “in vitro”, the CC50 was > 30 µM. For the same compound, the viability in “in vitro” (Maximum Viability (%)) stood at 104%; in “in vitro” (Minimum Viability (%)), 97.5%. In addition, in the data set with Vero E6 cells (African green monkey), the “Concentration at Minimum % Viability” value was found to be 3.75 µM. The “Concentration at Maximum % Viability” value with Vero E6 cells worked out at 0.06 µM. Also, the “Maximum Inhibition (%)” value in the data set with SARS-CoV-2 USA_WA1/2020 turned out to be 100.27%.

As for `Oc1c(I)cc(Cl)c2cccnc12` [CLQ, 5-chloro-7-iodo-8-quinolinol], in the data set “in vitro”, the CC50 was > 30 µM. The viability was 106% in the data set “in vitro” (Maximum Viability (%)) and 61.8% in the data set “in vitro” (Minimum Viability (%)). For the same compound, in data set [1] (setting [4]), the IC50 came out at 850 nM. Moreover, the “Concentration at Minimum % Viability” value in the data set on Vero E6 cells (African green monkey) worked out at 30.00 µM. In addition, the “Concentration at Maximum % Viability” value in the data set with Vero E6 cells worked out at 0.23 µM.

In the case of `CC(C)C[C@H](NC(=O)OCc1ccccc1)C(=O)N[C@@H](CC(C)C)C(=O)N[C@@H](Cc1ccc(O)cc1)C(=O)CF` [Calpain Inhibitor IV] (Cbz-Leu-Leu-Tyr-CH2F), in the data set with Vero E6 cells, the CC50 was > 7.17 µM, the “Concentration at Minimum % Viability” value was 3.59 µM, the “Maximum Viability (%)” value amounted to 104.99% and the “Minimum Viability (%)” value came out at 98.29%. In the data set with Vero E6 cells, the “Concentration at Maximum % Viability” value is 0.22 µM. For the same compound, in the data set on SARS-CoV-2 USA_WA1/2020, the “Maximum Inhibition (%)” value is reported as 95.75%. The IC50 with SARS-CoV-2 USA_WA1/2020 (read-out: IC50, SARS-CoV-2 induced CPE) was determined as 410 nM.

Take `CCOC(=O)[C@H]1O[C@@H]1C(=O)N[C@@H](CC(C)C)C(=O)NCCC(C)C` [E64d (Aloxistatin), Aloxistatin]: the CC50 in “in vitro” is > 30 µM. Besides, the viability amounted to 113% in “in vitro” (Maximum Viability (%)) and 100% in “in vitro” (Minimum Viability (%)). The “Concentration at Minimum % Viability” value in the data set on Vero E6 cells (African green monkey) worked out at 15.00 µM. Also, in the data set on Vero E6 cells, the “Concentration at Maximum % Viability” value came out at 0.12 µM. For the same compound, in the data set on SARS-CoV-2 USA_WA1/2020, the “Maximum Inhibition (%)” value came out at 98.55%.

With `CCN(CC)CCCC(C)Nc1ccnc2cc(Cl)ccc12` (stereo not shown) [Chloroquine], the CC50 in the data set “in vitro” was > 30 µM. Besides, the viability was determined as 107% in the data set “in vitro” (Maximum Viability (%)) and 95.6% in the data set “in vitro” (Minimum Viability (%)). The “Concentration at Minimum % Viability” value in the data set on Vero E6 cells (African green monkey) is 15.00 µM. Besides, in the data set with Vero E6 cells, the “Concentration at Maximum % Viability” value is 0.06 µM. Further, the “Maximum Inhibition (%)” value in the data set on SARS-CoV-2 USA_WA1/2020 is reported as 111.08%.

As to `CC(C)C[C@H](N[C@@H](Cc1cncn1Cc1cc(Cl)cc(Cl)c1)C(=O)O)C(=O)O` [MLN-4760, (S,S)-2-{1-Carboxy-2-[3-(3,5-dichloro-benzyl)-3H-imidazol-4-yl]-ethylamino}-4-methyl-pentanoic acid], the “disruption of ACE2-Spike interaction” value in data set [3] was “does not disrupt ACE2-Spike interaction”.

Take `CCN(CCO)CCCC(C)Nc1ccnc2cc(Cl)ccc12` (stereo not shown) [Hydroxychloroquine]: in the data set “in vitro”, the CC50 was > 30 µM. For the same compound, the results for the viability in the data set “in vitro” (Maximum Viability (%)) and in the data set “in vitro” (Minimum Viability (%)) were 104% and 96.9%, respectively. For the same compound, in the data set on Vero E6 cells (African green monkey), the “Concentration at Minimum % Viability” value was 3.75 µM. Further, the “Concentration at Maximum % Viability” value in the data set on Vero E6 cells came to 0.06 µM. Also, the “Maximum Inhibition (%)” value in the data set on SARS-CoV-2 USA_WA1/2020 was found to be 93.14%.

Turning to `Oc1c(Br)cc(Cl)c2cccnc12` [CLBQ14, 7-bromo-5-chloro-8-hydroxyquinoline], in “in vitro”, the CC50 was > 30 µM. Also, the results for the viability in “in vitro” (Maximum Viability (%)) and in the data set “in vitro” (Minimum Viability (%)) were 108% and 53.5%, respectively. Also, the IC50 came out at 2760 nM in data set [1] (setting [4]), 3060 nM in data set [1] (setting [5]) and 5.55 µM in data set [2]. Also, in the data set on Vero E6 cells (African green monkey), the “Concentration at Minimum % Viability” value came out at 15.00 µM. Also, the “Concentration at Maximum % Viability” value in the data set on Vero E6 cells was found to be 0.12 µM.

Turning to `[Cl-].[Cl-].[Zn+2]` [ZnCl2, Zinc Chloride], the “exopeptidase activity of rhACE2 in the presence of ZnCl2 alone” value in data set [2] (100μM to 100nM) is reported as “increasing exopeptidase activity”.

By viability is commonly meant a read-out of living cells in per cent, often relative to untreated cells. In general, IC50 refers to the concentration at which inhibition is half-maximal.
